# According to ChEMBL document CHEMBL1153245, “A profile of the in vitro anti-tumor activity of imidazolium-based ionic liquids” (2010):
# Tests used:
# Format in all cases: functional
# CCRF-CEM = assay: Anticancer activity against human CCRF-CEM cells after 48 hrs by sulforhodamine B assay
# HL-60(TB) = assay: Anticancer activity against human HL-60(TB) cells after 48 hrs by sulforhodamine B assay; conditions: Homo sapiens, HL-60, 48 h
# K562 = assay: Anticancer activity against human K562 cells after 48 hrs by sulforhodamine B assay; conditions: Homo sapiens, K562, 48 h
# MOLT-4 = assay: Anticancer activity against human MOLT4 cells after 48 hrs by sulforhodamine B assay; conditions: Homo sapiens, MOLT-4, 48 h
# [1] = Anticancer activity against human […] cells after 48 hrs by sulforhodamine B assay
# A549 = assay: Anticancer activity against human A549 cells after 48 hrs by sulforhodamine B assay; conditions: Homo sapiens, A549, 48 h
# EKVX = assay: Anticancer activity against human EKVX cells after 48 hrs by sulforhodamine B assay; conditions: Homo sapiens, EKVX, 48 h
# NCI-H322M = assay: Anticancer activity against human NCI-H322M cells after 48 hrs by sulforhodamine B assay; conditions: Homo sapiens, NCI-H322M, 48 h
# NCI-H522 = assay: Anticancer activity against human NCI-H522 cells after 48 hrs by sulforhodamine B assay; conditions: Homo sapiens, NCI-H522, 48 h
# HCT-15 = assay: Anticancer activity against human HCT15 cells after 48 hrs by sulforhodamine B assay; conditions: Homo sapiens, HCT-15, 48 h
# HT-29 = assay: Anticancer activity against human HT-29 cells after 48 hrs by sulforhodamine B assay; conditions: Homo sapiens, HT-29, 48 h
# SF-268 = assay: Anticancer activity against human SF268 cells after 48 hrs by sulforhodamine B assay; conditions: Homo sapiens, SF-268, 48 h
# SF-539 = assay: Anticancer activity against human SF539 cells after 48 hrs by sulforhodamine B assay; conditions: Homo sapiens, SF-539, 48 h
# SNB-19 = assay: Anticancer activity against human SNB19 cells after 48 hrs by sulforhodamine B assay; conditions: Homo sapiens, SNB-19, 48 h
# LOX IMVI = assay: Anticancer activity against human LOXIMVI cells after 48 hrs by sulforhodamine B assay; conditions: Homo sapiens, LOX IMVI, 48 h
# Malme-3M = assay: Anticancer activity against human MALME-3M cells after 48 hrs by sulforhodamine B assay; conditions: Homo sapiens, Malme-3M, 48 h
# SK-MEL-28 = assay: Anticancer activity against human SK-MEL-28 cells after 48 hrs by sulforhodamine B assay
# SK-MEL-5 = assay: Anticancer activity against human SK-MEL-5 cells after 48 hrs by sulforhodamine B assay
# UACC-62 = assay: Anticancer activity against human UACC62 cells after 48 hrs by sulforhodamine B assay; conditions: Homo sapiens, UACC-62, 48 h
# OVCAR-4 = assay: Anticancer activity against human OVCAR4 cells after 48 hrs by sulforhodamine B assay; conditions: Homo sapiens, OVCAR-4, 48 h
# OVCAR-5 = assay: Anticancer activity against human OVCAR5 cells after 48 hrs by sulforhodamine B assay; conditions: Homo sapiens, OVCAR-5, 48 h
# 786-0 = assay: Anticancer activity against human 786-0 cells after 48 hrs by sulforhodamine B assay; conditions: Homo sapiens, 786-0, 48 h
# ACHN = assay: Anticancer activity against human ACHN cells after 48 hrs by sulforhodamine B assay; conditions: Homo sapiens, ACHN, 48 h
# CAKI-1 = assay: Anticancer activity against human Caki1 cells after 48 hrs by sulforhodamine B assay; conditions: Homo sapiens, CAKI-1, 48 h
# NCI/ADR-RES = assay: Anticancer activity against human NCI/ADR-RES cells after 48 hrs by sulforhodamine B assay; conditions: Homo sapiens, NCI/ADR-RES, 48 h
# MDA-MB-231 = assay: Anticancer activity against human MDA-MB-231 cells after 48 hrs by sulforhodamine B assay; conditions: Homo sapiens, MDA-MB-231, 48 h
# [2] = Anticancer activity against human Hs 578T cells after 48 hrs by sulforhodamine B assay; conditions: Homo sapiens, Hs-578T, 48 h
# MDA-MB-435 = assay: Anticancer activity against human MDA-MB-435 cells after 48 hrs by sulforhodamine B assay; conditions: Homo sapiens, MDA-MB-435, 48 h
# BT-549 = assay: Anticancer activity against human BT549 cells after 48 hrs by sulforhodamine B assay; conditions: Homo sapiens, BT-549, 48 h
# T47D = assay: Anticancer activity against human T47D cells after 48 hrs by sulforhodamine B assay; conditions: Homo sapiens, T47D, 48 h
# [3] = read-out: LC50 (the source's name)
structure (smiles),measurement,setting,value
CCCCCCCCCCCC[n+]1ccn(C)c1.[Cl-],GI50,CCRF-CEM,0.54 µM
same,GI50,HL-60(TB),0.331 µM
same,CC50,HL-60(TB); [3],7.78 µM
same,GI50,K562,0.498 µM
same,CC50,K562; [3],> 100 µM
same,GI50,MOLT-4,2.9 µM
same,GI50,[1],0.109 µM
same,CC50,"[1]; Homo sapiens, RPMI8266, 48 h, read-out: LC50 (the source's name)",6.13 µM
same,GI50,A549,5.92 µM
same,GI50,EKVX,0.873 µM
same,CC50,EKVX; [3],> 100 µM
same,GI50,NCI-H322M,22.6 µM
same,GI50,NCI-H522,2.37 µM
same,GI50,HCT-15,20.8 µM
same,CC50,HCT-15; [3],> 100 µM
same,GI50,HT-29,2.6 µM
same,CC50,HT-29; [3],> 100 µM
same,GI50,SF-268,4.68 µM
same,CC50,SF-268; [3],> 100 µM
same,GI50,SF-539,2.72 µM
same,GI50,SNB-19,6.76 µM
same,CC50,SNB-19; [3],> 100 µM
same,GI50,LOX IMVI,1.72 µM
same,CC50,LOX IMVI; [3],45.3 µM
same,GI50,Malme-3M,4.96 µM
same,GI50,SK-MEL-28,4.57 µM
same,GI50,"SK-MEL-5; Homo sapiens, SK-MEL-5, 48 h",1.22 µM
same,CC50,SK-MEL-5; [3],7.8 µM
same,GI50,UACC-62,3.12 µM
same,GI50,OVCAR-4,3.17 µM
same,CC50,OVCAR-4; [3],> 100 µM
same,GI50,OVCAR-5,3.75 µM
same,CC50,OVCAR-5; [3],> 100 µM
same,GI50,786-0,3.36 µM
same,GI50,ACHN,7.24 µM
same,GI50,CAKI-1,1.79 µM
same,GI50,NCI/ADR-RES,55 µM
same,GI50,MDA-MB-231,3.39 µM
same,CC50,MDA-MB-231; [3],63.6 µM
same,GI50,[2],3.13 µM
same,CC50,[2]; [3],> 100 µM
same,GI50,MDA-MB-435,1.79 µM
same,CC50,MDA-MB-435; [3],69.1 µM
same,GI50,BT-549,1.84 µM
same,CC50,BT-549; [3],50.8 µM
same,GI50,T47D,4.29 µM
same,CC50,T47D; [3],> 100 µM
